Reference: patent US20210260010A1, “COMPOSITIONS AND METHODS FOR THE REDUCTION OR TREATMENT OF INFLAMMATION” (AXCELLA HEALTH INC., priority 2018, published 2021)

Key:
Type in all cases: cell-based
TNFα = assay: LPS-induced TNFα secretion in primary human monocyte-derived macrophages (ELISA); parameters: TNFa Measurements Mean: unit not given here; conditions: for TNFa Measurements Mean: Donor 1, LPS 0.15 ng/mL; for TNFa Measurements Mean / Donor 2 TNFa Measurements Mean / Donor 3 TNFa Measurements Mean: baseline subtracted; for LPS-induced TNFα secretion: macrophages, 0.15 ng/mL LPS; for Donor 2 TNFa Measurements Mean / LPS-induced TNFα secretion: Donor 2
Description: (§1) Unpurified buffy coats (Research Blood Components) were carefully poured into 50 mL centrifuge tubes and diluted with room temperature Dulbecco's Phosphate Buffered Saline (dPBS) with Calcium and Magnesium (Gibco). Diluted buffy coats were further divided into four total 50 mL centrifuge tubes at 20 mL per tube. Lymphocyte Separation Medium (Corning) was carefully pipetted to the bottom of each centrifuge tube. Mixtures were centrifuged at 850× g for 32 minutes at 20° C. with 0 deceleration and acceleration.
(§2) The PBMC layer was separated from other components after centrifugation and added to new 50 mL centrifuge tube containing 25 mL dPBS. Total volume was brought up to 50 mL with dPBS and centrifuged at 600×g for 10 minutes at 20° C. with acceleration of 9, deceleration of 5. Supernatant was carefully removed from cell pellets. The cell pellets were resuspended using 10 mL dPBS. Total volume was then brought up to 50 mL using dPBS and centrifuged at 450×g for 5 min at 20° C. with acceleration of 9, deceleration of 9. The supernatant removal and cell pellet resuspension was repeated again.
(§3) The supernatant was then carefully removed from cell pellets. Cell pellets were resuspended in 10 mL dPBS without calcium or magnesium and filtered through a 70 uM cell strainer. The total PBMC number was determined using a Cellometer K2 automated cell counter. A total of 5E6 cells were saved for flow cytometric analysis. Remaining cells were centrifuged at 490×g for 5 minutes at 20° C. with acceleration of 9, deceleration of 9.
(§4) CD14+ cells were selected using EasySep™ Human CD14 Positive Selection Kit II ([…] Technologies). Cells were resuspended in cold EasySep™ Buffer ([…] Technologies) at 1×10^8 cells/mL. A total of 100 uL/mL EasySep™ Human CD14 Positive Selection Cocktail II was added to the cell suspension, mixed, and incubated at room temperature for 10 minutes. A total of 100 uL/mL RapidSpheres were added to the mixture and incubated at room temperature for 3 minutes after mixing, then RoboSep buffer was added to bring up the total volume to 10 mL. The mixture in a 15 mL tube was placed in magnet and incubated at room temperature for 3 minutes. Supernatant was discarded and 10 mL fresh EasySep™ buffer was added to 15 mL tube. The addition of RoboSep buffer, mixing, and discarding of supernatant was repeated two more times.
(§5) Negative and positive fractions were centrifuged at 490×g for 5 minutes at 20° C. with acceleration of 9, deceleration of 9, and resuspended in DMEM (Gibco) and 10% Heat Inactivated Fetal Bovine Serum (Atlanta Bio) and Penicillin/Streptomycin. Cells were counted and centrifuged again at 490× g for 5 minutes at 20° C. with acceleration of 9, deceleration of 9. After centrifugation, cell were resuspended in DMEM (Gibco) and 10% Heat Inactivated Fetal Bovine Serum (Atlanta Bio) and Penicillin/Streptomycin containing 500 U/mL […] and plated at 1-2×10^6 cells/mL on 10 cm tissue culture plates. Cells were kept in 37° C., 5% CO2 in between feedings/harvest.
(§6) Cells were fed every 3-4 days by removing media and unattached cells, centrifuging at 490× g for 5 minutes at 20° C. with acceleration of 9, deceleration of 9, and resuspending in fresh DMEM (Gibco) and 10% Heat Inactivated Fetal Bovine Serum (Atlanta Bio) and Penicillin/Streptomycin containing GM-CSF. Resuspended cells were seeded back onto 10 cm tissue culture plates and incubated at 37° C., 5% CO2. Differentiated macrophages were used for subsequent experiments.
(§7) Primary human PMBC derived macrophages were seeded on day 0 at 3.0E4 cells per well in 96-well microplates (ThermoFisher) in Dulbecco's Modified Eagle Medium (DMEM) (Gibco) supplemented with penicillin-streptomycin (Hyclone) and 10% heat inactivated fetal bovine serum (HI-FBS) (Atlanta Bio) and incubated overnight at 37° C., 5% CO2. On day 1, cells were washed once with 150 uL per well DPBS (Gibco) and treated with 75 uL of: • a. […]

IL-6 [1] = assay: LPS-induced IL-6 secretion in primary human monocyte-derived macrophages (ELISA); conditions: for IL-6 Measurements Mean: LPS 0.15 ng/mL, baseline subtracted
Description: as §1, §2, §3, §4, §5, §6, §7

IL-6 [2] = assay: IL-6 cytokine secretion by TNFα-stimulated primary human hepatic stellate cells (ELISA); conditions: for IL-6 cytokine secretion, per-cell normalized, fold change from plasma amino acid background: primary human hepatic stellate cells, two donors, TNFα 3 ng/mL, 12 hours
Description: Primary human hepatic stellate cells were obtained from Samsara Sciences and grown in Complete HSC Medium to […] confluence in T75 or T150 flasks below passage 10 were seeded into 96-well plates and incubated for 6 hours at 37° C., 5% CO2 in a humidified incubator. After 6 hours, plates were removed from the incubator washed with DPBS and pretreated (±single amino acid dropout, ±supplemental amino acid dose; see experiment for medium composition) overnight, ˜14-15 hours. After overnight pretreatment, the medium was removed from the cells, and the same pretreatment medium, now supplemented with 3 ng/mL TNFα was applied. Plates were incubated for 12 hours at 37° C., 5% CO2. After 12 hour stimulus with TNFα, supernatant was removed and frozen at −80° C. in two separate aliquots. Plates were washed and incubated with CCK-8 viability reagent (Dojindo) for 1 hour. Viability was measured on the Synergy plate reader. Immediately, the medium was removed and the plates were fixed for immunofluorescence staining.
Human CCL2/MCP1 and Human IL-6 were measured by ELISA (Human […] DuoSet ELISA, R&D Systems; Human IL-6 DuoSet ELISA, R&D Systems) at ⅕ and 1/20 dilution in 1× Reagent Diluent (Reagent Ancillary Kit 2, R&D Systems). Data were normalized to the specific per well cell density determined by Hoechst stained nuclei count.
Tables 39-42 show per-cell normalized IL-6 cytokine secretion in primary human hepatic stellate cells from two donors as a fold change from the plasma amino acid background. Statistical significance calculated by one-way ANOVA with Dunnett's multiple comparison test within each treatment group.

CC(C)C[C@H](N)C(=O)O [Leucine, L-Leucine]
TNFa Measurements Mean (TNFα; Conc. 153 μM (baseline)): 0
TNFa Measurements Mean (TNFα; Conc. 3054 μM): 42.04
TNFa Measurements Mean (TNFα; Conc. 7635 μM): −23.04
TNFa Measurements Mean (TNFα; Conc. 15270 μM): −46.21
Donor 2 TNFa Measurements Mean (TNFα; Conc. 153 μM (baseline)): 0
Donor 2 TNFa Measurements Mean (TNFα; Conc. 3054 μM): 31.74
Donor 2 TNFa Measurements Mean (TNFα; Conc. 7635 μM): 41.98
Donor 2 TNFa Measurements Mean (TNFα; Conc. 15270 μM): 46.69
LPS-induced TNFα secretion (TNFα): increased
IL-6 Measurements Mean (IL-6 [1]; Donor 1, Conc. 153 μM (baseline)): 0
IL-6 Measurements Mean (IL-6 [1]; Donor 1, Conc. 3054 μM): 244.9743
IL-6 Measurements Mean (IL-6 [1]; Donor 1, Conc. 7635 μM): −69.9873
IL-6 Measurements Mean (IL-6 [1]; Donor 1, Conc. 15270 μM): 84.46
IL-6 Measurements Mean (IL-6 [1]; Donor 2, Conc. 153 μM (baseline)): 7.11E−15
IL-6 Measurements Mean (IL-6 [1]; Donor 2, Conc. 3054 μM): 29.61
IL-6 Measurements Mean (IL-6 [1]; Donor 2, Conc. 7635 μM): 30.46
IL-6 Measurements Mean (IL-6 [1]; Donor 2, Conc. 15270 μM): 47.6
LPS-induced IL-6 secretion (IL-6 [1]; macrophages, Donor 2, 0.15 ng/mL LPS): increased
Fold Change IL-6 Secretion Normalized Per Cell (IL-6 [2]; donor 1, Conc. 153 μM (plasma background, reference)): 1.0000
Fold Change IL-6 Secretion Normalized Per Cell (IL-6 [2]; donor 2, Conc. 153 μM (plasma background, reference)): 1.0000
IL-6 cytokine secretion, per-cell normalized, fold change from plasma amino acid background (IL-6 [2]): no significant effect

CC(C)[C@H](N)C(=O)O [Valine, L-Valine]
TNFa Measurements Mean (TNFα; Conc. 234 μM (baseline)): 0
TNFa Measurements Mean (TNFα; Conc. 4684 μM): −40.37
TNFa Measurements Mean (TNFα; Conc. 11710 μM): −41.77
TNFa Measurements Mean (TNFα; Conc. 23420 μM): −14.98
Donor 2 TNFa Measurements Mean (TNFα; Conc. 234 μM (baseline)): −4.7E−15
Donor 2 TNFa Measurements Mean (TNFα; Conc. 4684 μM): −0.00221
Donor 2 TNFa Measurements Mean (TNFα; Conc. 11710 μM): −0.835
Donor 2 TNFa Measurements Mean (TNFα; Conc. 23420 μM): −1.251
Donor 3 TNFa Measurements Mean (TNFα; Conc. 234 μM (baseline)): −2.4E−15
Donor 3 TNFa Measurements Mean (TNFα; Conc. 4684 μM): 0.126
Donor 3 TNFa Measurements Mean (TNFα; Conc. 11710 μM): −2.599
Donor 3 TNFa Measurements Mean (TNFα; Conc. 23420 μM): 3.688
IL-6 Measurements Mean (IL-6 [1]; Donor 1, Conc. 234 μM (baseline)): 0
IL-6 Measurements Mean (IL-6 [1]; Donor 1, Conc. 4684 μM): −85.9843
IL-6 Measurements Mean (IL-6 [1]; Donor 1, Conc. 11710 μM): −97.25
IL-6 Measurements Mean (IL-6 [1]; Donor 1, Conc. 23420 μM): −106.268
IL-6 Measurements Mean (IL-6 [1]; Donor 2, Conc. 234 μM (baseline)): −4.7E−15
IL-6 Measurements Mean (IL-6 [1]; Donor 2, Conc. 4684 μM): −4.528
IL-6 Measurements Mean (IL-6 [1]; Donor 2, Conc. 11710 μM): −1.196
IL-6 Measurements Mean (IL-6 [1]; Donor 2, Conc. 23420 μM): 4.396
IL-6 Measurements Mean (IL-6 [1]; Donor 3, Conc. 234 μM (baseline)): 4.26E−14
IL-6 Measurements Mean (IL-6 [1]; Donor 3, Conc. 4684 μM): −30.0609
IL-6 Measurements Mean (IL-6 [1]; Donor 3, Conc. 11710 μM): −43.8022
IL-6 Measurements Mean (IL-6 [1]; Donor 3, Conc. 23420 μM): −29.2004
Fold Change IL-6 Secretion Normalized Per Cell (IL-6 [2]; donor 1, Conc. 234 μM (plasma background, reference)): 1.0000
Fold Change IL-6 Secretion Normalized Per Cell (IL-6 [2]; donor 2, Conc. 234 μM (plasma background, reference)): 1.0000
IL-6 cytokine secretion, per-cell normalized, fold change from plasma amino acid background (IL-6 [2]): no significant effect

CC[C@H](C)[C@H](N)C(=O)O [Isoleucine, L-Isoleucine]
TNFa Measurements Mean (TNFα; Conc. 66 μM (baseline)): 0
TNFa Measurements Mean (TNFα; Conc. 1328 μM): −42.68
TNFa Measurements Mean (TNFα; Conc. 3320 μM): −96.3
TNFa Measurements Mean (TNFα; Conc. 6639 μM): −40.95
Donor 2 TNFa Measurements Mean (TNFα; Conc. 66 μM (baseline)): 4.74E−15
Donor 2 TNFa Measurements Mean (TNFα; Conc. 1328 μM): 2.919
Donor 2 TNFa Measurements Mean (TNFα; Conc. 3320 μM): 10.26
Donor 2 TNFa Measurements Mean (TNFα; Conc. 6639 μM): 19.26
Donor 3 TNFa Measurements Mean (TNFα; Conc. 66 μM (baseline)): −2.4E−15
Donor 3 TNFa Measurements Mean (TNFα; Conc. 1328 μM): −6.23
Donor 3 TNFa Measurements Mean (TNFα; Conc. 3320 μM): 3.309
Donor 3 TNFa Measurements Mean (TNFα; Conc. 6639 μM): −1.66
LPS-induced TNFα secretion (TNFα): increased
IL-6 Measurements Mean (IL-6 [1]; Donor 1, Conc. 66 μM (baseline)): 0
IL-6 Measurements Mean (IL-6 [1]; Donor 1, Conc. 1328 μM): 25.98
IL-6 Measurements Mean (IL-6 [1]; Donor 1, Conc. 3320 μM): −15.8843
IL-6 Measurements Mean (IL-6 [1]; Donor 1, Conc. 6639 μM): −218.332
IL-6 Measurements Mean (IL-6 [1]; Donor 2, Conc. 66 μM (baseline)): 0
IL-6 Measurements Mean (IL-6 [1]; Donor 2, Conc. 1328 μM): −2.318
IL-6 Measurements Mean (IL-6 [1]; Donor 2, Conc. 3320 μM): 2.305
IL-6 Measurements Mean (IL-6 [1]; Donor 2, Conc. 6639 μM): −1.774
IL-6 Measurements Mean (IL-6 [1]; Donor 3, Conc. 66 μM): −6.69
IL-6 Measurements Mean (IL-6 [1]; Donor 3, Conc. 1328 μM): −28.9897
IL-6 Measurements Mean (IL-6 [1]; Donor 3, Conc. 3320 μM): 0
IL-6 Measurements Mean (IL-6 [1]; Donor 3, Conc. 6639 μM): −16.3663
Fold Change IL-6 Secretion Normalized Per Cell (IL-6 [2]; donor 1, Conc. 66 μM (plasma background, reference)): 1.0000
Fold Change IL-6 Secretion Normalized Per Cell (IL-6 [2]; donor 2, Conc. 66 μM (plasma background, reference)): 1.0000
IL-6 cytokine secretion, per-cell normalized, fold change from plasma amino acid background (IL-6 [2]): no significant effect
